# Test results taken from patent US20140309210A1, “INDAZOLE COMPOUNDS, COMPOSITIONS AND METHODS OF USE THEREOF” (Genentech, Inc., priority 2011, published 2014).
# pKi: −log10 of the molar value.
# Target: T1, purified ITK (Invitrogen PV3875) (Homo sapiens, UniProt Q08881)
# T1 construct: purchased Invitrogen PV3875
# T1 sequence (Q08881 1-620): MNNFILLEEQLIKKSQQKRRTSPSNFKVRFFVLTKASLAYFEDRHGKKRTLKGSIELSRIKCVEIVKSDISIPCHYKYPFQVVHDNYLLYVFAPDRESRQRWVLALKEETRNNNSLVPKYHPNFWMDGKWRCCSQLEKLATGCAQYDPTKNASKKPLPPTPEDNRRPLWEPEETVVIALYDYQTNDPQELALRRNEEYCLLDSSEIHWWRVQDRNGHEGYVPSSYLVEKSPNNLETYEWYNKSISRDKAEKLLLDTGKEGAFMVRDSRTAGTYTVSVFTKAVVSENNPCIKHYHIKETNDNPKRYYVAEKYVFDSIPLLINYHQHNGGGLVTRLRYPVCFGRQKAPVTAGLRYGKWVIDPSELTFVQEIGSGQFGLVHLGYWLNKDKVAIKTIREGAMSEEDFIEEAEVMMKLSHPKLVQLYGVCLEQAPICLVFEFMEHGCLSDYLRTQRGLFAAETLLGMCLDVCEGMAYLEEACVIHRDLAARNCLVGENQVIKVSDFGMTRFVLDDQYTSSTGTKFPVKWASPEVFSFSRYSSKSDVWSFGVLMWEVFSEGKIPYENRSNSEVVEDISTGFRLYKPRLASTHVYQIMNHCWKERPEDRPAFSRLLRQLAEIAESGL
# Experiment: ITK peptide phosphorylation assay (Caliper LabChip or LCMS)
# Format: biochemical
# Summary of the method: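 Ki values come from Morrison quadratic fits of activity versus inhibitor concentration, adjusted for ATP-competitive inhibition against ATP/Km,app. Substrate and phosphopeptide from purified ITK reactions were resolved either microfluidically (Caliper, EDTA stop) or by LC-MS MRM (TCA stop).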
# [1] = Table 2, Examples 1-140, class symbols
# [2] = Table 3, specific values for certain examples
SMILES,pKi [1],pKi [2],"pKi (Table 1, Examples 141-279)"
"CN(CCC#N)Cc1cccc(Cn2cc(NC(=O)c3n[nH]c4ccccc34)cn2)c1 [Example 100, N-(1-(3-(((2-cyanoethyl)(methyl)amino)methyl)benzyl)-1H-pyrazol-4-yl)-1H-indazole-3-carboxamide]",7.00 to 9.00,,
"CNCc1cccc(Cn2cc(NC(=O)c3n[nH]c4ccccc34)cn2)c1 [Example 101, N-(1-(3-((methylamino)methyl)benzyl)-1H-pyrazol-4-yl)-1H-indazole-3-carboxamide]",7.00 to 9.00,,
"O=C(Nc1cnn(Cc2ccc(CN3CCC3)cc2)c1)c1n[nH]c2ccccc12 [Example 103, N-(1-(4-(azetidin-1-ylmethyl)benzyl)-1H-pyrazol-4-yl)-1H-indazole-3-carboxamide]",7.00 to 9.00,,
"O=C(Nc1cnn(Cc2ccc(CNCC(F)F)cc2)c1)c1n[nH]c2ccccc12 [Example 105, N-(1-(4-((2,2-difluoroethylamino)methyl)benzyl)-1H-pyrazol-4-yl)-1H-indazole-3-carboxamide]",7.00 to 9.00,,
"O=C(Nc1cnn(Cc2ccc(CNC3CCC3)cc2)c1)c1n[nH]c2ccccc12 [Example 107, N-(1-(4-((cyclobutylamino)methyl)benzyl)-1H-pyrazol-4-yl)-1H-indazole-3-carboxamide]",7.00 to 9.00,,
"O=C(Nc1cnn(Cc2ccc(CNCC3CC3)cc2)c1)c1n[nH]c2ccccc12 [Example 108, N-(1-(4-((cyclopropylmethylamino)methyl)benzyl)-1H-pyrazol-4-yl)-1H-indazole-3-carboxamide]",7.00 to 9.00,,
"CCNCc1ccc(Cn2cc(NC(=O)c3n[nH]c4ccccc34)cn2)cc1 [Example 110, N-(1-(4-((ethylamino)methyl)benzyl)-1H-pyrazol-4-yl)-1H-indazole-3-carboxamide]",7.00 to 9.00,,
"CNCc1ccc(Cn2cc(NC(=O)c3n[nH]c4ccccc34)cn2)cc1 [Example 112, N-(1-(4-((methylamino)methyl)benzyl)-1H-pyrazol-4-yl)-1H-indazole-3-carboxamide]",7.00 to 9.00,,
"O=C(Nc1cnn(Cc2ccc(CN3CCC(O)C3)cc2)c1)c1n[nH]c2ccccc12 (stereo not shown) [Example 114, N-(1-(4-((3-hydroxypyrrolidin-1-yl)methyl)benzyl)-1H-pyrazol-4-yl)-1H-indazole-3-carboxamide]",7.00 to 9.00,,
"COc1ccc(-c2ccc3c(C(=O)Nc4cnn(Cc5cccc(C#N)c5)c4)n[nH]c3c2)cn1 [Example 117, N-(1-(3-cyanobenzyl)-1H-pyrazol-4-yl)-6-(6-methoxypyridin-3-yl)-1H-indazole-3-carboxamide]",7.00 to 9.00,,
"Cc1ncccc1-c1ccc2c(C(=O)Nc3cnn(Cc4cccc(C#N)c4)c3)n[nH]c2c1 [Example 118, N-(1-(3-cyanobenzyl)-1H-pyrazol-4-yl)-6-(2-methylpyridin-3-yl)-1H-indazole-3-carboxamide]",< 7.00,6.96,
"Cc1ccc(-c2ccc3c(C(=O)Nc4cnn(Cc5cccc(C#N)c5)c4)n[nH]c3c2)cn1 [Example 120, N-(1-(3-cyanobenzyl)-1H-pyrazol-4-yl)-6-(6-methylpyridin-3-yl)-1H-indazole-3-carboxamide]",7.00 to 9.00,,
"CN(C)CC(c1ccccc1)n1cc(NC(=O)c2n[nH]c3cc(-c4cn[nH]c4)ccc23)cn1 (stereo not shown) [Example 135, N-(1-(2-(dimethylamino)-1-phenylethyl)-1H-pyrazol-4-yl)-6-(1H-pyrazol-4-yl)-1H-indazole-3-carboxamide]",9.00 to 11.00,,
"CC[C@@H](c1ccccc1)n1cc(NC(=O)c2n[nH]c3cc(-c4ccc(N)nc4)ccc23)cn1 [Example 136, (S)-6-(6-aminopyridin-3-yl)-N-(1-(1-phenylpropyl)-1H-pyrazol-4-yl)-1H-indazole-3-carboxamide]",7.00 to 9.00,,
"CC[C@@H](c1ccccc1)n1cc(NC(=O)c2n[nH]c3cc(-c4cncnc4)ccc23)cn1 [Example 138, (S)—N-(1-(1-phenylpropyl)-1H-pyrazol-4-yl)-6-(pyrimidin-5-yl)-1H-indazole-3-carboxamide]",7.00 to 9.00,8.25,
"CC[C@@H](c1ccccc1)n1cc(NC(=O)c2n[nH]c3cc(-c4cccnc4)ccc23)cn1 [Example 139, (S)—N-(1-(1-phenylpropyl)-1H-pyrazol-4-yl)-6-(pyridin-3-yl)-1H-indazole-3-carboxamide]",7.00 to 9.00,,
"CC[C@@H](c1ccccc1)n1cc(NC(=O)c2n[nH]c3cc(-c4ccncc4)ccc23)cn1 [Example 140, (S)—N-(1-(1-phenylpropyl)-1H-pyrazol-4-yl)-6-(pyridin-4-yl)-1H-indazole-3-carboxamide]",7.00 to 9.00,,
"CN(CCO)c1nc(Cn2cc(NC(=O)c3n[nH]c4cc(-c5cn[nH]c5)ccc34)cn2)cs1 [Example 141, N-[1-[[2-[2-hydroxyethyl(meth-yl)amino]thiazol-4-yl]methyl]pyrazol-4-yl]-6-(1H-pyrazol-4-yl)-1H-indazole-3-carboxamide]",,,8.55
"N#Cc1cccc(Cn2cc(NC(=O)c3n[nH]c4cc(-n5ccnc5)ccc34)cn2)c1 [Example 142, N-[1-[(3-cyanophenyl)meth-yl]pyrazol-4-yl]-6-imidazol-1-yl-1H-indazole-3-carboxamide]",,,7.49
"O=C(Nc1cnn(Cc2cncc(Br)c2)c1)c1n[nH]c2cc(-c3cn[nH]c3)ccc12 [Example 143, N-[1-[(5-bromo-3-pyridyl)methyl]py-razol-4-yl]-6-(1H-pyrazol-4-yl)-1H-indazole-3-carboxamide]",,,9.21
"N#Cc1cccc(Cn2cc(NC(=O)c3n[nH]c4cc(Br)c(F)cc34)cn2)c1 [Example 146, 6-bromo-N-[1-[(3-cyanophenyl)meth-yl]pyrazol-4-yl]-5-fluoro-1H-indazole-3-carboxamide]",,,6.95
"N#Cc1cccc(Cn2cc(NC(=O)c3n[nH]c4cc(-c5cn[nH]c5)c(F)cc34)cn2)c1 [Example 147, N-[1-[(3-cyanophenyl)meth-yl]pyrazol-4-yl]-5-fluoro-6-(1H-pyrazol-4-yl)-1H-indazole-3-carboxamide]",,,8.11
"Cc1cc2c(C(=O)Nc3cnn(Cc4cccc(C#N)c4)c3)n[nH]c2cc1-c1cncc(C#N)c1 [Example 148, N-[1-[(3-cyanophenyl)meth-yl]pyrazol-4-yl]-6-(5-cyano-3-pyridyl)-5-methyl-1H-indazole-3-carboxamide]",,,7.24

# Next, values leading:
pKi [1],pKi [2],"pKi (Table 1, Examples 141-279)",SMILES
7.00 to 9.00,,,"CN(C)CCNCc1cccc(Cn2cc(NC(=O)c3n[nH]c4ccccc34)cn2)c1 [Example 102, N-(1-(3-((2-(dimethylamino)ethylamino)methyl)benzyl)-1H-pyrazol-4-yl)-1H-indazole-3-carboxamide]"
7.00 to 9.00,,,"CN(C)CCNCc1ccc(Cn2cc(NC(=O)c3n[nH]c4ccccc34)cn2)cc1 [Example 104, N-(1-(4-((2-(dimethylamino)ethylamino)methyl)benzyl)-1H-pyrazol-4-yl)-1H-indazole-3-carboxamide]"
7.00 to 9.00,,,"CC(O)CNCc1ccc(Cn2cc(NC(=O)c3n[nH]c4ccccc34)cn2)cc1 (stereo not shown) [Example 106, N-(1-(4-((2-hydroxypropylamino)methyl)benzyl)-1H-pyrazol-4-yl)-1H-indazole-3-carboxamide]"
7.00 to 9.00,,,"CCCNCc1ccc(Cn2cc(NC(=O)c3n[nH]c4ccccc34)cn2)cc1 [Example 109, N-(1-(4-((propylamino)methyl)benzyl)-1H-pyrazol-4-yl)-1H-indazole-3-carboxamide]"
7.00 to 9.00,,,"CN(CCC#N)Cc1ccc(Cn2cc(NC(=O)c3n[nH]c4ccccc34)cn2)cc1 [Example 111, N-(1-(4-(((2-cyanoethyl)(methyl)amino)methyl)benzyl)-1H-pyrazol-4-yl)-1H-indazole-3-carboxamide]"
7.00 to 9.00,,,"CC(C)(O)CNCc1ccc(Cn2cc(NC(=O)c3n[nH]c4ccccc34)cn2)cc1 [Example 113, N-(1-(4-((2-hydroxy-2-methylpropylamino)methyl)benzyl)-1H-pyrazol-4-yl)-1H-indazole-3-carboxamide]"
7.00 to 9.00,,,"CN(C)Cc1ccc(Cn2cc(NC(=O)c3n[nH]c4ccccc34)cn2)cc1 [Example 115, N-(1-(4-((dimethylamino)methyl)benzyl)-1H-pyrazol-4-yl)-1H-indazole-3-carboxamide]"
7.00 to 9.00,,,"Cn1cc(-c2ccc3c(C(=O)Nc4cnn(Cc5cccc(C#N)c5)c4)n[nH]c3c2)cn1 [Example 121, N-(1-(3-cyanobenzyl)-1H-pyrazol-4-yl)-6-(1-methyl-1H-pyrazol-4-yl)-1H-indazole-3-carboxamide]"
7.00 to 9.00,,,"CC(c1ccccc1)n1cc(NC(=O)c2n[nH]c3ccccc23)cn1 (stereo not shown) [Example 131, N-(1-(1-phenylethyl)-1H-pyrazol-4-yl)-1H-indazole-3-carboxamide]"
7.00 to 9.00,8.00,,"CC[C@@H](c1ccccc1)n1cc(NC(=O)c2n[nH]c3cc(-c4cc[nH]n4)ccc23)cn1 [Example 137, (S)—N-(1-(1-phenylpropyl)-1H-pyrazol-4-yl)-6-(1H-pyrazol-3-yl)-1H-indazole-3-carboxamide]"
,,7.15,"Cc1cc2c(C(=O)Nc3cnn(Cc4cccc(C#N)c4)c3)n[nH]c2cc1-c1cccnc1 [Example 149, N-[1-[(3-cyanophenyl)meth-yl]pyrazol-4-yl]-5-methyl-6-(3-pyridyl)-1H-indazole-3-carboxamide]"
